Results from ChEMBL document CHEMBL5260857, “Identification of specific carbonic anhydrase inhibitors via in situ click chemistry, phage-display and synthetic peptide libraries: comparison of the methods and structural study” (RSC Med Chem, 2023).
pKi: −log10 of the molar value. Where a SMILES comes first, the peptide text is derived from it. The star is where a group is joined. X2 = NS(=O)(=O)c1ccc(CCNC(=O)Cn2cc(COC(=O)*)nn2)cc1; X1 = NS(=O)(=O)c1ccc(CO/N=C/C(=O)*)cc1

Molecular target: Carbonic anhydrase 9 (Homo sapiens, UniProt Q16790)
Assay: Inhibition of human carbonic anhydrase 9 assessed as Ki by stopped-flow carbon dioxide hydration assay

Structure (SMILES) | pKi
C#Cc1ccc(S(N)(=O)=O)cc1 | 6.82
[N-]=[N+]=NCC(=O)NCCc1ccc(S(N)(=O)=O)cc1 | 5.92
CC(C)C[C@H](NC(=O)[C@H](CO)NC(=O)/C=N/OCc1ccc(S(N)(=O)=O)cc1)C(N)=O | 5.60
NOCc1ccc(S(N)(=O)=O)cc1 | 6.07
CC(C)C[C@H](NC(=O)[C@H](CCC(N)=O)NC(=O)[C@H](Cc1ccc(O)cc1)NC(=O)[C@H](Cc1ccccc1)NC(=O)[C@@H](N)CCCCNC(=O)OCc1cn(CC(=O)NCCc2ccc(S(N)(=O)=O)cc2)nn1)C(=O)N[C@@H](Cc1ccc(O)cc1)C(=O)N[C@@H](Cc1ccccc1)C(N)=O (H-K(X2)FYQLYF-NH2) | 7.16
CC(C)C[C@H](NC(=O)[C@H](CO)NC(=O)/C=N/OCc1ccc(S(N)(=O)=O)cc1)C(=O)N1CCC[C@H]1C(=O)N[C@@H](Cc1ccccc1)C(N)=O (X1-SLPF-NH2) | 6.03
CC(C)C[C@H](NC(=O)[C@H](CO)NC(=O)/C=N/OCc1ccc(S(N)(=O)=O)cc1)C(=O)N1CCC[C@H]1C(=O)N[C@@H](Cc1ccccc1)C(=O)N[C@H](C(=O)N[C@H](C(=O)N[C@@H](Cc1ccc(O)cc1)C(=O)N[C@@H](CC(N)=O)C(N)=O)C(C)C)[C@@H](C)O (X1-SLPFTVYN-NH2) | 5.86

Results, then the compound that gave them:

pKi | Structure (SMILES)
5.55 | CC(C)C[C@H](NC(=O)[C@H](CO)NC(=O)/C=N/OCc1ccc(S(N)(=O)=O)cc1)C(=O)N1CCC[C@H]1C(N)=O
5.74 | NC(=O)[C@H](CO)NC(=O)/C=N/OCc1ccc(S(N)(=O)=O)cc1
7.96 | CC(C)C[C@@H](C(N)=O)n1cc(-c2ccc(S(N)(=O)=O)cc2)nn1
6.98 | NC(=O)[C@H](Cc1ccc(O)cc1)NC(=O)[C@H](Cc1ccc(O)cc1)NC(=O)[C@H](Cc1ccccc1)NC(=O)[C@H](Cc1c[nH]c2ccccc12)NC(=O)[C@H](Cc1ccccc1)NC(=O)[C@H](Cc1ccccc1)NC(=O)[C@@H](N)CCCCNC(=O)OCc1cn(CC(=O)NCCc2ccc(S(N)(=O)=O)cc2)nn1 (H-K(X2)FFWFYY-NH2)
6.45 | C[C@H](NC(=O)[C@H](Cc1cnc[nH]1)NC(=O)[C@H](C)NC(=O)[C@H](CCCCN)NC(=O)[C@H](Cc1ccc(O)cc1)NC(=O)[C@@H]1CCCN1C(=O)[C@H](Cc1cnc[nH]1)NC(=O)/C=N/OCc1ccc(S(N)(=O)=O)cc1)C(=O)N[C@@H](Cc1cnc[nH]1)C(N)=O (X1-HPYKAHAH-NH2)
